Experimental data from paper PMC11249977, “Investigating Penetration and Antimicrobial Activity of Vector-Bicycle Conjugates” (ACS Infectious Diseases, 2024).
Values after ≈ are worked out from the molar mass of the structure shown. Like-named read-outs stand apart in the source and are kept apart here. Non-standard residues stand in square brackets, D forms with d. Residues, ends and D or L forms follow the SMILES beside them. Dap(N3) = [N-]=[N+]=NC[C@H](N)C(=O)O

System: E. coli (ATCC25922)
Format: cell-based, Escherichia coli
Settings: for MIC (μg/ml), repeat 1 / MIC (μg/ml), repeat 2 / MIC (μg/ml), repeat 3: ATCC25922
Source text: To determine how the cell killing ability of the vector-Bicycle variants changed when compared to the original vector, their antimicrobial activity was examined against a clinical strain of E. coli (ATCC25922) in cation-adjusted Mueller Hinton broth (CaMHB). The minimum inhibitory concentration (MIC) is defined as the lowest concentration of compound that completely prevents bacterial growth (Table 2). The unconjugated Bicycle molecule (AB1) and the original unconjugated vector (AV1) were used to make the MAP-Bicycle conjugate A1. All MAP-Bicycle conjugates contain the AB1 Bicycle molecule, linked to a variant of the original MAP (e.g., C2, S2, H6). The unconjugated MAP variants are labeled with the equivalent letter and number but with a “V” included in the name (e.g., CV2, SV2, HV6, see Table 1 for all vector variants).
Bacterial stock was streaked onto LB agar plates and incubated at 37 °C for 16–18 h. Using a sterile swab, single colonies were picked and resuspended in 2 mL of 0.9% saline solution, visually matching the turbidity of a 0.5 McFarland standard and having an OD600 nm of 0.18–0.25 (which corresponds to […]). The suspension was diluted 200-fold in cation-adjusted Mueller–-Hinton Broth (Ca-MHB), and 100 μL of the diluted culture was pipetted in wells of a 96-well plate containing 100 μL of a 2-factor dilution series of a compound per row of wells. The plate was incubated at 37 °C for 19 h. Afterward, the OD600 nm of each well was read using a Pherastar FSX plate reader. MIC values were determined, with the MIC being the lowest concentration of the compound at which growth was absent (i.e., OD600 nm was equivalent to no growth, as observed in carbenicillin control wells). This was also verified visually. […]

[1] = E. coli ATCC25922, CaMHB, 37 °C, 19 h, OD600 nm read, range of at least 3 biological repeats

Molecule: CC(C)C[C@@H](NC(=O)[C@@H](CCCNC(=N)N)NC(=O)[C@@H](CCCNC(=N)N)NC(=O)[C@H](NC(=O)[C@@H](Cc1c[nH]c2ccccc12)NC(=O)[C@@H](CCCNC(=N)N)NC(=O)[C@@H](CCCNC(=N)N)NC(=O)[C@@H](Cc1c[nH]c2ccccc12)NC(=O)[C@@H](CCCNC(=N)N)NC(=O)[C@@H](N)CN=[N+]=[N-])C(C)C)C(=O)N[C@H](CO)C(=O)N[C@H](CCCCN)C(N)=O [CV2] (H-[Dap(N3)][dR][dW][dR][dR][dW][dV][dR][dR][dL][dS][dK]-NH2; N-terminus and C-terminus assumed)
- MIC (ATCC25922, 19 h): 9.4 µM
- MIC [1]: 16 µg/mL

Molecule: CAzal - dR dW dS dR dW dV dR dR dL dR dK – CONH2 [CV6, standalone MAP vector variant of AV1, single arginine substitution]
- MIC [1]: 16 µg/mL

Molecule: CC(C)C[C@@H](NC(=O)[C@@H](CCCNC(=N)N)NC(=O)[C@@H](CCCNC(=N)N)NC(=O)[C@H](NC(=O)[C@@H](Cc1c[nH]c2ccccc12)NC(=O)[C@@H](CCCNC(=N)N)NC(=O)[C@@H](CO)NC(=O)[C@@H](Cc1c[nH]c2ccccc12)NC(=O)[C@@H](CCCNC(=N)N)NC(=O)[C@@H](N)CN=[N+]=[N-])C(C)C)C(=O)N[C@H](CO)C(=O)N[C@H](CCCCN)C(N)=O [AV1] (H-[Dap(N3)][dR][dW][dS][dR][dW][dV][dR][dR][dL][dS][dK]-NH2; N-terminus and C-terminus assumed)
- MIC (ATCC25922, 19 h): 19.5 µM
- MIC [1]: 32 µg/mL

Molecule: CC(C)C[C@@H](NC(=O)[C@@H](CCCNC(=N)N)NC(=O)[C@@H](CCCNC(=N)N)NC(=O)[C@@H](CCCNC(=N)N)NC(=O)[C@@H](Cc1c[nH]c2ccccc12)NC(=O)[C@@H](CCCNC(=N)N)NC(=O)[C@@H](CO)NC(=O)[C@@H](Cc1c[nH]c2ccccc12)NC(=O)[C@@H](CCCNC(=N)N)NC(=O)[C@@H](N)CN=[N+]=[N-])C(=O)N[C@H](CO)C(=O)N[C@H](CCCCN)C(N)=O [CV4] (H-[Dap(N3)][dR][dW][dS][dR][dW][dR][dR][dR][dL][dS][dK]-NH2; N-terminus and C-terminus assumed)
- MIC (ATCC25922, 19 h): 18.8 µM
- MIC [1]: 32 µg/mL

Molecule: CC(C)C[C@@H](NC(=O)[C@@H](CCCNC(=N)N)NC(=O)[C@@H](CCCNC(=N)N)NC(=O)[C@H](NC(=O)[C@@H](Cc1c[nH]c2ccccc12)NC(=O)[C@@H](CCCNC(=N)N)NC(=O)[C@@H](CO)NC(=O)[C@@H](CCCNC(=N)N)NC(=O)[C@@H](CCCNC(=N)N)NC(=O)[C@@H](N)CN=[N+]=[N-])C(C)C)C(=O)N[C@H](CO)C(=O)N[C@H](CCCCN)C(N)=O [CV1] (H-[Dap(N3)][dR][dR][dS][dR][dW][dV][dR][dR][dL][dS][dK]-NH2; N-terminus and C-terminus assumed)
- MIC (μg/ml), repeat 1: > 64 µg/mL
- MIC (μg/ml), repeat 2: > 64 µg/mL
- MIC (μg/ml), repeat 3: > 64 µg/mL
- MIC (ATCC25922, 19 h): >39.7 µM

Molecule: CAzal - dR dW dS dR dW dV dR dR dR dR dK – CONH2 [CV12, standalone MAP vector variant of AV1, double arginine substitution]
- MIC [1]: 16 µg/mL

Molecule: CC(C)C[C@@H](NC(=O)[C@@H](CCCNC(=N)N)NC(=O)[C@@H](CCCNC(=N)N)NC(=O)[C@H](NC(=O)[C@@H](CCCNC(=N)N)NC(=O)[C@@H](CCCNC(=N)N)NC(=O)[C@@H](CO)NC(=O)[C@@H](Cc1c[nH]c2ccccc12)NC(=O)[C@@H](CCCNC(=N)N)NC(=O)[C@@H](N)CN=[N+]=[N-])C(C)C)C(=O)N[C@H](CO)C(=O)N[C@H](CCCCN)C(N)=O [CV3] (H-[Dap(N3)][dR][dW][dS][dR][dR][dV][dR][dR][dL][dS][dK]-NH2; N-terminus and C-terminus assumed)
- MIC (μg/ml), repeat 1: > 64 µg/mL
- MIC (μg/ml), repeat 2: > 64 µg/mL
- MIC (μg/ml), repeat 3: > 64 µg/mL
- MIC (ATCC25922, 19 h): >39.7 µM

Molecule: CC(C)[C@@H](NC(=O)[C@@H](Cc1c[nH]c2ccccc12)NC(=O)[C@@H](CCCNC(=N)N)NC(=O)[C@@H](CO)NC(=O)[C@@H](Cc1c[nH]c2ccccc12)NC(=O)[C@@H](CCCNC(=N)N)NC(=O)[C@@H](N)CN=[N+]=[N-])C(=O)N[C@H](CCCNC(=N)N)C(=O)N[C@H](CCCNC(=N)N)C(=O)N[C@H](CCCNC(=N)N)C(=O)N[C@H](CO)C(=O)N[C@H](CCCCN)C(N)=O [CV5] (H-[Dap(N3)][dR][dW][dS][dR][dW][dV][dR][dR][dR][dS][dK]-NH2; N-terminus and C-terminus assumed)
- MIC (ATCC25922, 19 h): 19 µM
- MIC [1]: 32 µg/mL

Molecule: CC(C)C[C@@H](NC(=O)[C@@H](CCCNC(=N)N)NC(=O)[C@@H](CCCNC(=N)N)NC(=O)[C@H](NC(=O)[C@@H](Cc1c[nH]c2ccccc12)NC(=O)[C@@H](CCCNC(=N)N)NC(=O)[C@@H](CCCNC(=N)N)NC(=O)[C@@H](CCCNC(=N)N)NC(=O)[C@@H](CCCNC(=N)N)NC(=O)[C@@H](N)CN=[N+]=[N-])C(C)C)C(=O)N[C@H](CO)C(=O)N[C@H](CCCCN)C(N)=O [CV8] (H-[Dap(N3)][dR][dR][dR][dR][dW][dV][dR][dR][dL][dS][dK]-NH2; N-terminus and C-terminus assumed)
- MIC (μg/ml), repeat 1: 64 µg/mL (≈ 38.1 µM)
- MIC (μg/ml), repeat 2: 64 µg/mL (≈ 38.1 µM)
- MIC (μg/ml), repeat 3: > 64 µg/mL
